From patent publication US20240269050A1, “ELECT[…] FOR DELIVERING A COMPOSITION COMPRISING AT LEAST ONE HYDROXY ACID COMPOUND” (L'OREAL, priority 2021, published 2024)

Conditions: composition applied with electroporation (Fusion Meso Xpert, ftrain 0.4 Hz, negative polarity) compared with topical application of an identical composition; human skin sample; FIG. 5
Source text: To test the effect of the device, a sample of human skin is peripherally attached to a support, with the counterelectrode of the electroporation device placed between the inner face of the skin and the support. The electrode of the electroporation device is placed in contact with the outer face of the skin sample. The case of the electroporation device is immobilized by a support. The support is placed on an orbital shaker, so that the electrode moves over the surface of the skin.
The frequency (ftrain) with which the pulse trains follow each other is 0.4 Hz, the duration Ton ranges from 0.5 to 2 seconds, and the chosen polarity is negative, i.e. the electrode is at a negative potential with respect to the counterelectrode. The apparatus is used in the highest energy mode. […] The pulses of frequency fpulse are, for example, of maximum amplitude deltaV, within the pulse train, this amplitude deltaV being less than or equal to 30% of the voltage Vmean, as an absolute value.
The cosmetic compositions are applied before the apparatus is put in place.
Firstly, compositions 1 to 3 are applied topically, and secondly, the application of compositions 1 to 3 is combined with electroporation.
The skin is removed from the experimental system and then analysed to determine the amount of salicylic acid that has penetrated.

- amount of salicylic acid that has penetrated: much higher
SMILES: O=C(O)c1ccccc1O [salicylic acid]
